For the series, the target named is T1, TLR9 (Mus musculus, UniProt Q9EQU3).
T1 construct: from tissue; host or cells: whole animal: C57BL/6, FVB and FVB GADD34ΔC/ΔC mice
T1 sequence (Q9EQU3 26-1032): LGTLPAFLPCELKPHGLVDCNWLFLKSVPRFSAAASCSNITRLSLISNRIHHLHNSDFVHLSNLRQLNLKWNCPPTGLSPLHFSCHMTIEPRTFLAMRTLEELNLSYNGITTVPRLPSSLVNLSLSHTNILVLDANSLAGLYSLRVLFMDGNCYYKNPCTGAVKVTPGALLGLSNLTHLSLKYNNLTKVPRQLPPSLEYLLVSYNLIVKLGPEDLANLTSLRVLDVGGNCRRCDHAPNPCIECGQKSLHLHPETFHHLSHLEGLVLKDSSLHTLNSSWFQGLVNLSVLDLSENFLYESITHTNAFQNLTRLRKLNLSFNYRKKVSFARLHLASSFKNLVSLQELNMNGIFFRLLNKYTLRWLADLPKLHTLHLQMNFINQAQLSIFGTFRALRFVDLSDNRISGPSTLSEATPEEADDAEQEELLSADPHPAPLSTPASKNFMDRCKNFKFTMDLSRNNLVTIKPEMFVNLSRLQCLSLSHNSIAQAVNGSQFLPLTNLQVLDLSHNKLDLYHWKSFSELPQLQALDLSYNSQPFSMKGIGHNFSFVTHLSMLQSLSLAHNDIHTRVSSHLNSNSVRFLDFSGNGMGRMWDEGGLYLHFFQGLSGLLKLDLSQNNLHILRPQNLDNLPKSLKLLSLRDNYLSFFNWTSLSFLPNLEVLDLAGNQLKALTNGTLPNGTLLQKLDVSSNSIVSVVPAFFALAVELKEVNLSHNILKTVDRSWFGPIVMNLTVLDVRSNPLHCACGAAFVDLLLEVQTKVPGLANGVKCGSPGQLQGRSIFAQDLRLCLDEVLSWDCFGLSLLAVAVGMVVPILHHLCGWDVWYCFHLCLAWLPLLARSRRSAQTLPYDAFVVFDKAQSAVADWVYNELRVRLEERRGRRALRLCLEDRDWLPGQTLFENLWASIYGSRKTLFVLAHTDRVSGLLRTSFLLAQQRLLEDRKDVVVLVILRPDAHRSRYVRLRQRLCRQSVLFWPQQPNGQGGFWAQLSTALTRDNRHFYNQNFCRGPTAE
As to the kind of experiment: Cytokine production and gene expression in sorted Flt3L-DC pDCs activated with CpG ODN 1585. Format: cell-based. The method, then:
FIG. 1: Guanabenz inhibits TLR3 and TLR9 activation in mouse Flt3-L DCs and human blood pDCs. A) Sorted bone marrow derived Flt3L-DCs were activated for 6 h with 10 μg/mL poly I:C LMW (TLR3 in DC1) or 1 μM ODN 1585 (TLR9 in pDCs). GBZ was added at 50 μM and inhibited IFN-β and Interleukin-6 (IL-6) production in activated cells. B) […], hTLR3, hTLR9 and hTLR7 expressed in the reporter HEK-Blue™ cells are inhibited by GBZ. TLR-expressing HEK-Blue™ cells were respectively activated with 100 ng/mL LPS, 10 μg/mL poly I:C LMW, 2.5 μM ODN 2006 or 5 μg/mL imiquimod, respectively. GBZ was added at 50 μM. TLR activity was measured indirectly through SEAP activity as absorbance at 405 nm. GBZ inhibited human TLR3, TLR7 and TLR9 signaling, but not TLR4._C) Human primary pDCs were isolated from blood and activated either with 3 μM CpG ODN 2216 (top) or with 2% of anti-DNA IgG containing serum from lupus patients (bottom). GBZ was added at 50 μM. Protein concentration of IFN-α and TNF-α secreted were measured at the indicated time points or at 16 h. Statistical significance was assigned using two tailed t-test on at least n=3 independent experiments (* p<0.05; ** p<0.005; ***p<0.0005).
BM-derived DCs were differentiated in vitro from the bone marrow of 6-8 weeks old male mice, using either FLT3 ligand or GM-CSF. Flt3L-DCs were used for experiments between days 6 and 7. Flt3L was produced using B16-Flt3L hybridoma cells. Bone marrow progenitors were plated at 1.5 10^6 cells/ml, 4 ml/well in 6 well plate, and cultivated with RPMI (GIBCO), 10% FCS (Sigma Aldrich), 100 units/ml penicillin and 100 μg/ml streptomycin (GIBCO), 50 μM b-mercaptoethanol (VWR) and Flt3L. For sorted Flt3L-DCs, cells were gently harvested at day 7 with cold PBS 2% FCS, centrifuged 1200 rpm 5 min at 4° C., counted and stained with for 30 mins at 4° C. Cells were sorted with the FACS ARIASorp. Cells were kept on ice all the time. […]
ODN 2006, 2216, 1585 and 1826, Poly I:C High and Low Molecular Weight are from InvivoGen, San Diego, Calif.; lipopolysaccharide (Escherichia coli 055:B5), clonidine, chloroquine, D-(+)-Galactosamine hydrochloride and 25-HC are from Sigma Aldrich; Guanabenz is from Tocris Bioscience. For quantitative PCR, total RNAs were extracted and purified using the RNeasy Mini Kit (Qiagen). […] Each gene transcripts were quantified by SYBR Green method with 7500Fast (Applied Biosystems). The relative amount of each transcript was determined by normalizing to internal housekeeping gene expression.
Mouse IFN-β quantification in culture supernatant was performed using the Mouse Interferon Beta ELISA kit (PBL InterferonSource); mouse IL-6, TNFα, IL-10, human TNFα and human IFNα were quantified using ELISA kit (eBioscience) respectively, according to manufacturer instructions. […]

Setting [1] is: sorted pDCs, 1 μM ODN 1585 6 h, GBZ 50 μM.

Entries after “also recorded” stand apart in the source; their conditions may differ.

For the compound `NC(N)=N/N=C/c1c(Cl)cccc1Cl` [GBZ, 2-(2,6-dichlorobenzylidene)-hydrazinecarboximidamide], the “transcriptional response to CpG ODN (ifna4, Tnfa, isg15, Il12 by qPCR)” value (pDC, data not shown) is listed as “inhibited completely”. Moreover, under “sorted cDC1 and pDCs treated with GBZ”, the “impact on cell fitness” value is “without any impact”. Moreover, under setting [1], the IFN-β production entry was “nearly abrogated; also recorded: inhibited” and the IL-6 production result is “nearly abrogated; also recorded: inhibited”.
